Measurements: paper PMC10709440, “High-throughput ligand profile characterization in novel cell lines expressing seven heterologous insect olfactory receptors for the detection of volatile plant biomarkers” (Scientific Reports, 2023)
Values joined by “and” are separate entries in the source; they are usually repeats but may differ in a detail not shown here. Equal entries are not always repeated. Where two headings read alike, the source gives them in different places.

Legend:
Drosophila OR10a = target: T1, Drosophila OR10a (Drosophila melanogaster, UniProt Q9VYZ1); test: Calcium ion fluorescence (GCaMP6) assay, OR10a stable HEK293 cell line; format: cell-based
T1 construct: expressed in transfected cells
T1 sequence (Q9VYZ1 1-406): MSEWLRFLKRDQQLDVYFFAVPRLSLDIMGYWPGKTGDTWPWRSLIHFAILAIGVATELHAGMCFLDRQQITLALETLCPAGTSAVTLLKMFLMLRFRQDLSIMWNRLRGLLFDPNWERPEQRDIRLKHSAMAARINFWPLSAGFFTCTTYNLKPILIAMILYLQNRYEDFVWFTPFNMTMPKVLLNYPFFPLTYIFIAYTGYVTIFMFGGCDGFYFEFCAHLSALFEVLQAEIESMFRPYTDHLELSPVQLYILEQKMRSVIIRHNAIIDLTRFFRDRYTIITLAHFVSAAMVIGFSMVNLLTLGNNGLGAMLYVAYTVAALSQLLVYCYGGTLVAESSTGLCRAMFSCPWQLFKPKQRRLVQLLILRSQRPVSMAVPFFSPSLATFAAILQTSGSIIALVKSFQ
T1 sequence (Q9VNB5 1-486 partner): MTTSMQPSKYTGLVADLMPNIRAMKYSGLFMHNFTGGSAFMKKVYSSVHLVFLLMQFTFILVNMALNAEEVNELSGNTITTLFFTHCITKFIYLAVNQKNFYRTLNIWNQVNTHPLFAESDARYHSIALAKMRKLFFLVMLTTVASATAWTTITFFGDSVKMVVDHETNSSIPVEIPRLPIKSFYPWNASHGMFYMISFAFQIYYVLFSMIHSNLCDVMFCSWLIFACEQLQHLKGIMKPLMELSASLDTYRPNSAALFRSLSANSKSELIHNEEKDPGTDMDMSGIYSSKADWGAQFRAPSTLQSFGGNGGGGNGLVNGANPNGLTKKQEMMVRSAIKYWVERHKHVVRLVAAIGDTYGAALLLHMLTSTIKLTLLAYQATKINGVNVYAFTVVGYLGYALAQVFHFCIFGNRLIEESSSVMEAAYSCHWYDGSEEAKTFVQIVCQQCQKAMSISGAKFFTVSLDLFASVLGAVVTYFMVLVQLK
Method in brief: (§1)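 HEK293 lines stably expressing each Drosophila OR with GCaMP6, doxycycline-induced (1 μg/mL) 48 or 72 h. Fluorescence recorded 5 s baseline then 30 s after VOC injection at pH 7.3; ΔF=(FMAX−F0)/F0, normalized to 50 µM VUAA1 response per line, triplicate wells averaged; concentration series 0.01–100 μM.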

Drosophila OR13a = target: T2, Drosophila OR13a (Drosophila melanogaster, UniProt Q9VXL0); test: Calcium ion fluorescence (GCaMP6) assay, OR13a stable HEK293 cell line; format: cell-based; conditions: for dose-response, AVERAGE response: N 3
T2 construct: expressed in transfected cells
T2 sequence (Q9VXL0 1-418): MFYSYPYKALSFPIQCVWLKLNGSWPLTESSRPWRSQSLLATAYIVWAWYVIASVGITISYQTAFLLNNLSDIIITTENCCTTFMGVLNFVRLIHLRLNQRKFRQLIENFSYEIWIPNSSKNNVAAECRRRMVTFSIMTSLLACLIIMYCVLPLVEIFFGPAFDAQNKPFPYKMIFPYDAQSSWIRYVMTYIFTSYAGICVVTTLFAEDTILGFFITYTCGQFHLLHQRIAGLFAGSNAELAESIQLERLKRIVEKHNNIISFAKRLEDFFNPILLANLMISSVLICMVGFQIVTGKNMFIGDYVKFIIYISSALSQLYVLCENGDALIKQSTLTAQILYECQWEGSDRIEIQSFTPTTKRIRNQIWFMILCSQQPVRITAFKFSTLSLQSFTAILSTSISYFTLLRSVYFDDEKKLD
T2 sequence (Q9VNB5 1-486 partner): T1 sequence (Q9VNB5 1-486 partner)
Method in brief: as §1

[1] = ligand concentration 1 (unit not given), 0.05 threshold, values below shown as 0
[2] = ligand concentration 10 (unit not given), 0.05 threshold, values below shown as 0
[3] = ligand concentration 100 (unit not given), 0.05 threshold, values below shown as 0
[4] = HEK293, read-out: OR13a Average response (VUAA1-normalized), 1 μM VOC, 50 μM VUAA1 = 1, responses not exceeding 0.05 considered 0
[5] = HEK293, read-out: OR13a Average response (VUAA1-normalized), 10 μM VOC, 50 μM VUAA1 = 1, responses not exceeding 0.05 considered 0
[6] = HEK293, 1 μM VOC, 50 μM VUAA1 = 1, responses not exceeding 0.05 considered 0, read-out: OR10a Average response (VUAA1-normalized)
[7] = HEK293, 10 μM VOC, 50 μM VUAA1 = 1, responses not exceeding 0.05 considered 0, read-out: OR10a Average response (VUAA1-normalized)
[8] = HEK293, 100 μM VOC, 50 μM VUAA1 = 1, responses not exceeding 0.05 considered 0, read-out: OR10a Average response (VUAA1-normalized)
[9] = HEK293, read-out: OR10a response (VUAA1-normalized response), VOC concentration 1 μM
[10] = HEK293, read-out: OR10a response (VUAA1-normalized response), VOC concentration 10 μM
[11] = HEK293, read-out: OR10a response (VUAA1-normalized response), VOC concentration 100 μM
[12] = ligand concentration 1 (unit not given), threshold 0.05, below shown as 0
[13] = ligand concentration 10 (unit not given), threshold 0.05, below shown as 0
[14] = ligand concentration 100 (unit not given), threshold 0.05, below shown as 0
[15] = HEK293, read-out: OR13a Average response (VUAA1-normalized), 100 μM VOC, 50 μM VUAA1 = 1, responses not exceeding 0.05 considered 0
[16] = HEK293, read-out: OR13a response (VUAA1-normalized response), VOC concentration 1 μM
[17] = HEK293, read-out: OR13a response (VUAA1-normalized response), VOC concentration 10 μM
[18] = HEK293, read-out: OR13a response (VUAA1-normalized response), VOC concentration 100 μM
[19] = concentration 1, normalized fluorescence change, values below 0.05 threshold given as 0
[20] = concentration 10, normalized fluorescence change, values below 0.05 threshold given as 0
[21] = concentration 100, normalized fluorescence change, values below 0.05 threshold given as 0
[22] = the 13th table, VOC concentration 2.5
[23] = the 13th table, VOC concentration 5
[24] = the 13th table, VOC concentration 25
[25] = the 13th table, VOC concentration 50
[26] = the 13th table, VOC concentration 100
[27] = 1 μM VOC, 50 μM VUAA1 = 1, responses not exceeding 0.05 considered 0
[28] = 10 μM VOC, 50 μM VUAA1 = 1, responses not exceeding 0.05 considered 0
[29] = 100 μM VOC, 50 μM VUAA1 = 1, responses not exceeding 0.05 considered 0

SMILES	activation at 1 µM (Drosophila OR13a; [4]) [%]	activation at 10 µM (Drosophila OR13a; [5]) [%]	activation at 1 µM (Drosophila OR10a; [6]) [%]	activation at 10 µM (Drosophila OR10a; [7]) [%]	activation at 100 µM (Drosophila OR10a; [8]) [%]	activation at 1 µM (Drosophila OR10a; [9]) [%]	activation at 10 µM (Drosophila OR10a; [10]) [%]	activation at 100 µM (Drosophila OR10a; [11]) [%]	DF norm AVERAGE OR10a (Drosophila OR10a; [12])	DF norm AVERAGE OR10a (Drosophila OR10a; [13])	DF norm AVERAGE OR10a (Drosophila OR10a; [14])	activation at 100 µM (Drosophila OR13a; [15]) [%]	activation at 1 µM (Drosophila OR13a; [16]) [%]	activation at 10 µM (Drosophila OR13a; [17]) [%]	activation at 100 µM (Drosophila OR13a; [18]) [%]	DF norm AVERAGE OR13a (Drosophila OR13a; [12])	DF norm AVERAGE OR13a (Drosophila OR13a; [13])	DF norm AVERAGE OR13a (Drosophila OR13a; [14])	DF norm AVERAGE OR10a (Drosophila OR10a)	DF norm AVERAGE OR13a (Drosophila OR13a; [19])	also measured
C=Cc1ccccc1 [styrene]	3	0																			activation at 1 µM (Drosophila OR10a; HEK293, read-out: OR10a Average response (VUAA1-normalized), 1 μM VOC, 50 μM VUAA1 = 1, responses not exceeding 0.05 considered 0): 3%; activation at 10 µM (Drosophila OR10a; HEK293, read-out: OR10a Average response (VUAA1-normalized), 10 μM VOC, 50 μM VUAA1 = 1, responses not exceeding 0.05 considered 0): 0%; activation at 100 µM (Drosophila OR10a; HEK293, read-out: OR10a Average response (VUAA1-normalized), 100 μM VOC, 50 μM VUAA1 = 1, responses not exceeding 0.05 considered 0): 14%; OR10a response (VUAA1-normalized) at 1 μM (Drosophila OR10a; OR10a cell line, VOC concentration 1 μM): 0.00; OR10a response (VUAA1-normalized) at 10 μM (Drosophila OR10a; OR10a cell line, VOC concentration 10 μM): 0.00; OR10a response (VUAA1-normalized) at 100 μM (Drosophila OR10a; OR10a cell line, VOC concentration 100 μM): 0.14; DF norm AVERAGE OR10a (Drosophila OR10a; [1]): 0; DF norm AVERAGE OR10a (Drosophila OR10a; [2]): 0; DF norm AVERAGE OR10a (Drosophila OR10a; [3]): 0.144; OR13a response (VUAA1-normalized) at 1 μM (Drosophila OR13a; OR13a cell line, VOC concentration 1 μM): 0.00; OR13a response (VUAA1-normalized) at 10 μM (Drosophila OR13a; OR13a cell line, VOC concentration 10 μM): 0.00; OR13a response (VUAA1-normalized) at 100 μM (Drosophila OR13a; OR13a cell line, VOC concentration 100 μM): 0.00; DF norm AVERAGE OR13a (Drosophila OR13a; [1]): 0; DF norm AVERAGE OR13a (Drosophila OR13a; [2]): 0; DF norm AVERAGE OR13a (Drosophila OR13a; [3]): 0
CCCC(=O)OCC [ethyl butyrate]	0	0	0	2.38	2.76	0	0	0	0	0	0	0	0	0	0	0	0	0			
CCCCC(C)O (stereo not shown) [2-hexanol]	0	0	2.54	0	0	0	0	0				5	0	0	0				0	0	DF norm AVERAGE OR13a (Drosophila OR13a; [20]): 0; DF norm AVERAGE OR13a (Drosophila OR13a; [21]): 0
CCCCCCCCCC=O [decanal]	0	0	0	0	0	0	0	0	0	0	0	0	0	0	0	0	0	0			
C=CC(O)C/C=C\CC (stereo not shown) [(5Z)-octa-1,5-dien-3-ol]	0	15	0	2.25	0	0	0	0				37	0	15	37				0	0	EC50 (Drosophila OR13a; EC50, fitted average curve, the 13th table, fit to the average curve, n 0.854956): 7.19 µM; EC50 (Drosophila OR13a; EC50, fitted parameter per biological replicate, the 13th table, OR13a D-R (5Z)-octa-1,5-dien-3-ol, individual replicate fits, MIN 0, n 1): 9.97 µM and 3 µM and 5.85 µM; EC50 (Drosophila OR13a; EC50, fitted parameter per biological replicate, the 13th table, individual replicate fits): 9.97 µM and 3 µM and 5.85 µM; DF norm AVERAGE OR13a (Drosophila OR13a; [20]): 0.1531; DF norm AVERAGE OR13a (Drosophila OR13a; [21]): 0.3701; dose-response, response per biological replicate (Drosophila OR13a; [22]): 0 and 0.07532 and 0.2134; dose-response, AVERAGE response (Drosophila OR13a; [22]): 0.09623; dose-response, response per biological replicate (Drosophila OR13a; [23]): 0.1122 and 0.07908 and 0.2962; dose-response, AVERAGE response (Drosophila OR13a; [23]): 0.1625; dose-response, response per biological replicate (Drosophila OR13a; [24]): 0.1336 and 0.1252 and 0.4462; dose-response, AVERAGE response (Drosophila OR13a; [24]): 0.235; dose-response, response per biological replicate (Drosophila OR13a; [25]): 0.1449 and 0.1487 and 0.5376; dose-response, AVERAGE response (Drosophila OR13a; [25]): 0.2771; dose-response, response per biological replicate (Drosophila OR13a; [26]): 0.2093 and 0.133 and 0.6441; dose-response, AVERAGE response (Drosophila OR13a; [26]): 0.3288; MAX, fitted average curve (Drosophila OR13a; the 13th table, fit to the average curve, n 0.854956): 0.3433; MAX, fitted parameter per biological replicate (Drosophila OR13a; the 13th table, individual replicate fits): 0.2031 and 0.1439 and 0.6228 and 0.37
CC/C=C/CCO [e3-hexenol]									0	0	0.07404					0	0	0.07115			OR10a Average response (VUAA1-normalized) (Drosophila OR10a; [27]): 0.0153; OR10a Average response (VUAA1-normalized) (Drosophila OR10a; [28]): 0.00; OR10a Average response (VUAA1-normalized) (Drosophila OR10a; [29]): 0.074; OR13a Average response (VUAA1-normalized) (Drosophila OR13a; [27]): 0.00; OR13a Average response (VUAA1-normalized) (Drosophila OR13a; [28]): 0.00; OR13a Average response (VUAA1-normalized) (Drosophila OR13a; [29]): 0.07
